Laboratory results: article PMC9029323, “In Silico Identification of Novel Inhibitors Targeting the Homodimeric Interface of Superoxide Dismutase from the Dental Pathogen Streptococcus mutans” (Antioxidants, 2022)

Assays:
[1] = system: Streptococcus mutans ATCC-700610; assay: Broth micro-dilution antibacterial assay (planktonic growth); format: cell-based; conditions: 24 h
Method: (§1) The bacterial strain used for antimicrobial assays was Streptococcus mutans ATCC-700610. The strain was stored in 15% (v/v) glycerol stocks at −80 °C. Before each experiment, cells were subcultured from the stocks into Trypticase Soy Agar (TSA, cat. PA-254051.06) with 5% Sheep Blood (Becton Dickinson, Sparks, NV, USA) plates at 37 °C in 5% CO2 atmosphere for 48 h.
The antibacterial activity of compounds ALS-31 or ALS-31-9 was assayed in S. mutans cultures by a standard broth micro-dilution method in 96-well polystyrene plates using Brain-Heart Infusion broth (BHI, cat. 255003, Becton Dickinson, Sparks, NV, USA). One hundred microliters of bacterial suspension adjusted to approximately 1.5 × 10^6 CFU/mL were incubated with 100 µL of serial dilutions of the compounds dissolved in final 1.0% (v/v) DMSO as a vehicle. The plates were incubated at 37 °C in 5% CO2 atmosphere for 24 h under shaking (300 rpm). The medium turbidity was measured by a spectrophotometer at 595 nm (Bio-Rad Laboratories Inc., Hercules, CA, USA). Compound-free wells in 1.0% (v/v) DMSO were used as controls (100% planktonic growth), and antibacterial activity was expressed as a percentage of residual growth. Chlorhexidine acetate (CHX, cat. 51094, Sigma-Aldrich, St. Louis, MO, USA) solution (1 mg/mL) was prepared and included as control for the assay of S. mutans’ susceptibility (MIC referred to [51]). Each compound was tested in triplicate; each experiment was performed twice.

[2] = system: Streptococcus mutans ATCC-700610; assay: Crystal violet staining biofilm biomass assay; format: cell-based; conditions: 24 h
Method: as §1
The crystal violet (CV) staining method was used to measure biofilm biomass formed in flat-bottomed 96-well microplates in the presence of ALS-31 or ALS-31-9, as described by Stepanović et al., with some modifications. A bacterial suspension of approximately 1.5 × 10^6 CFU/mL in BHI supplemented with 1% (w/v) glucose was prepared, and 100-µL aliquots of this suspension were incubated with 100 µL of serial dilutions of each compound. The microplate was incubated at 37 °C for 24 h, after which the non-adherent cells were gently aspirated and the wells gently rinsed with PBS (Sigma–Aldrich). The adhered biofilm was dried at 60 °C for 30 min and subsequently stained with 0.1% (w/v) crystal violet solution for 30 min. After washing with PBS and solubilization with absolute ethanol to release the dye from the biofilm, the plate was read at 570 nm in a spectrophotometer. The absorbance recorded was related to the amount of biofilm produced. The reduction in the mass of the biofilm was expressed as a percentage by using the formula [(Ac-At)/Ac] × 100, where Ac is the OD570 for the control wells and At is the OD570 in the presence of the tested compound.

cambialistic StSOD = cambialistic StSOD (Streptococcus thermophilus, UniProt Q5M4Z1); assay: SOD activity assay with StSOD; format: biochemical
Sequence of cambialistic StSOD (Q5M4Z1 entry or part of it): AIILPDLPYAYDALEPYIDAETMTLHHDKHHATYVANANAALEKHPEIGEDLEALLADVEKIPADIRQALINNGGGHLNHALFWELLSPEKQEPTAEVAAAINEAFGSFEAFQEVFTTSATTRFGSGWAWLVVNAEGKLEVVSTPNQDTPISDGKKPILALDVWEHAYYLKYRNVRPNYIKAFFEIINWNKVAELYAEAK
Text: Purified recombinant forms of SmSOD and StSOD were obtained through a heterologous expression system constituted by the Escherichia coli BL21(DE3) strain transformed with appropriate expression vectors, vSmSOD [11] or vStSOD [12]. These pET-22b(+)- or pET-28b(+)-derived plasmids led to the production of recombinant forms of SmSOD or StSOD, respectively fused to a His-tail, useful for their one-step purification by affinity chromatography, as previously described [11, 12]. The improvement of Mn uptake by SmSOD was realised as previously described [11, 12, 13]. The resulting metal (Fe and Mn) content in the cambialistic enzyme was determined by graphite furnace atomic absorption spectrometry with a Shimadzu ACS-6100 auto sampler [46]. Fe-SOD from Escherichia coli (cat. SRP6107) and the Cu/Zn-SOD from bovine erythrocytes (cat. 574594) were purchased from Sigma–Aldrich. A recombinant form of the eukaryal Mn–SOD from rat mitochondria was prepared as previously described [19]. Protein concentration was determined by the Bradford method, using bovine serum albumin as standard [47]. […] One unit of SOD activity was defined as the amount of enzyme that caused 50% inhibition of cytochrome c reduction.

## CSCCC(NC(=O)COc1ccc2c3c(c(=O)oc2c1)CCCC3)C(=O)NCCC(=O)O (stereo not drawn) [ALS-31]
[1]; 104 µM
  percentage of planktonic growth of S. mutans: 74.3 ± 4.5%
[1]; 209 µM
  percentage of planktonic growth of S. mutans: 50.7 ± 4.2%
[1]
  concentration up to which no antimicrobial activity is displayed in S. mutans suspensions: ≤ 50 µM
[2]; Streptococcus mutans, ATCC700610, 52.5 µM, read-out: inhibition of biofilm biomass formation
  inhibition at 52.5 µM: 68.2%
[2]; serial dilutions from 52.5 µM
  effect on biofilm formation: no effects
Cambialistic StSOD
  IC50: 218 ± 50 µM
